This passage reports IC50 and inhibition results from ChEMBL document CHEMBL5584205 (Bioorg Med Chem Lett, 2024).

The target of one experiment is T1, Neutrophil elastase (Homo sapiens, UniProt P08246).
T1 sequence (P08246 whole entry): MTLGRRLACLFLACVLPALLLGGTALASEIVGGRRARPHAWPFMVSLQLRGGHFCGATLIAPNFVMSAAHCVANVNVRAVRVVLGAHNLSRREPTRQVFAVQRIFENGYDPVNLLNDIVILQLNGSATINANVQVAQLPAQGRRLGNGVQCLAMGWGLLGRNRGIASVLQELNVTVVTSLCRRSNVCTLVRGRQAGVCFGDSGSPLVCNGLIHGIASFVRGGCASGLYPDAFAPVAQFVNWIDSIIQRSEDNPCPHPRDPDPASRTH
As to the kind of experiment: Inhibition of human neutrophil elastase by enzymatic assay.

Experiment [1] in a line: Inhibition of elastase release in fMLP/CB-induced human neutrophils by cell based assay. The class given is functional. The note with it: Neutrophil.
In a further experiment the test system is Neutrophil. Put plainly: Inhibition of O2 generation in fMLP/CB-induced human neutrophils by cell based assay. The class given is functional.
A further experiment is filed under the species Homo sapiens. Put plainly: Inhibition of CG (unknown origin).
Another experiment deals with T2, Myeloblastin (Homo sapiens, UniProt P24158).
T2 sequence (P24158 whole entry): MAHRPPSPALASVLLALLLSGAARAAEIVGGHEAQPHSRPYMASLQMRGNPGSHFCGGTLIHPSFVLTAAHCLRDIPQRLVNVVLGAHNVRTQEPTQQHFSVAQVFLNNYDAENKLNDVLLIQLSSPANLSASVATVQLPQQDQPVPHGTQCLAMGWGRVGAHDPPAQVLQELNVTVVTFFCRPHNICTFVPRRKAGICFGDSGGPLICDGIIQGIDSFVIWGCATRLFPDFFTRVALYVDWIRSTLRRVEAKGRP
As to the kind of experiment: Inhibition of PR3 (unknown origin) activity.

Experiment [2] has as its target T3, NAD-dependent protein deacetylase sirtuin-2 (Homo sapiens, UniProt Q8IXJ6).
T3 sequence (Q8IXJ6 whole entry): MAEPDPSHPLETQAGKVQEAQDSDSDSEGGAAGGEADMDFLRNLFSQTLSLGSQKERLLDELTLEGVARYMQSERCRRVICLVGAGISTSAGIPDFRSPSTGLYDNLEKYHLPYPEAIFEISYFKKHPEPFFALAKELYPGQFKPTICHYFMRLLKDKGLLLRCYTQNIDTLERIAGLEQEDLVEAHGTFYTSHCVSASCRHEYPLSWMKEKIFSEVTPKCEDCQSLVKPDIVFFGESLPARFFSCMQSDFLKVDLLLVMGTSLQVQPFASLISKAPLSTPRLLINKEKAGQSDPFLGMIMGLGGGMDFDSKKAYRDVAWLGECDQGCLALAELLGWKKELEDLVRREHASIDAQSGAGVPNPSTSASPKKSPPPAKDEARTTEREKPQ
Put plainly: Inhibition of SIRT2 (unknown origin) activity.

The source made the active and inactive calls. The rule behind the calls is not given here. Bounds are passed on as bounds.

By IC50 is commonly meant the concentration that gives 50% inhibition. With `COC(=O)[C@@H](Cc1ccccc1)NC(=O)c1ccccc1/N=N/c1c(O)ccc2ccccc12`, the IC50 at Neutrophil elastase is 19.3 µM; in experiment [1], greater than 10 µM.
On to `COC(=O)[C@@H](NC(=O)c1ncccc1/N=N/c1c(O)ccc2ccccc12)c1ccccc1`, for which the IC50 on Neutrophil elastase was 22.4 µM; in the experiment with Neutrophil it was greater than 10 µM; in experiment [1], greater than 10 µM.
On to `COC(=O)[C@@H](Cc1ccccc1)NC(=O)c1ccccc1/N=C/c1c(O)ccc2ccccc12`, for which the concentration for half-maximal inhibition (IC50) is greater than 50 µM against Neutrophil elastase, 4.27 µM in the experiment on Neutrophil and 1.59 µM in experiment [1].
In the same order, the values of `O=C(N[C@@H](Cc1ccccc1)C(=O)O)c1ccccc1/N=N/c1c(O)ccc2ccccc12` are 21 µM, 1.31 µM and 1.07 µM.
The matching figures for `O=C(N[C@@H](C(=O)O)c1ccccc1)c1ccccc1/N=N/c1c(O)ccc2ccccc12`: 20.4 µM, 1.12 µM and 2.36 µM.
`CC(NC(=O)c1ccccc1/N=C/c1ccccc1O)c1ccccc1` (configuration not stated): the IC50 at Neutrophil elastase is greater than 50 µM; in the experiment with Neutrophil, 6.07 µM; in experiment [1], greater than 10 µM.
Take `COC(=O)[C@H](Cc1ccccc1)NC(=O)c1ccccc1/N=N/c1c(O)ccc2ccccc12`: the IC50 at Neutrophil elastase was 31.2 µM; in experiment [1], greater than 10 µM.
Consider `O=C(N[C@H](C(=O)O)c1ccccc1)c1ncccc1/N=N/c1c(O)ccc2ccccc12`, for which the IC50 amounted to 4.91 µM at Neutrophil elastase; 0.9 µM in the experiment with Neutrophil; 1.86 µM in experiment [1]; 20.7 µM at Myeloblastin; 2.42 µM in experiment [2]. The inhibition entry in the experiment listed under Homo sapiens is “inactive”.
With `COC(=O)[C@@H](NC(=O)c1ccccc1/N=C/c1ccccc1O)c1ccccc1`, the IC50 on Neutrophil elastase is greater than 50 µM; in the experiment with Neutrophil, greater than 10 µM; in experiment [1], 8.73 µM.
As to `COC(=O)[C@H](NC(=O)c1ccccc1/N=N/c1c(O)ccc2ccccc12)c1ccccc1`, the values for the IC50 (against Neutrophil elastase; in the experiment with Neutrophil; in experiment [1]) were 18.9 µM, greater than 10 µM and greater than 10 µM, respectively.
On to `COC(=O)[C@@H](NC(=O)c1ccccc1/N=N/c1c(O)ccc2ccccc12)c1ccccc1`, for which the IC50 against Neutrophil elastase is 18 µM; with Neutrophil it was greater than 10 µM; in experiment [1], greater than 10 µM.
As to `CC(NC(=O)c1ccccc1/N=C/c1c(O)ccc2ccccc12)c1ccccc1` (configuration not stated) [SIRTINOL], the half-inhibitory concentration (IC50) on Neutrophil elastase is 24.5 µM; with Neutrophil it was greater than 10 µM; in experiment [1] it was 1.92 µM.
In the same order, the values of `CC(NC(=O)c1ccccc1/N=N/c1c(O)ccc2ccccc12)c1ccccc1` (configuration not stated) are 12.1 µM, greater than 10 µM and greater than 10 µM.
In the same order, the values of `C[C@@H](NC(=O)c1ccccc1/N=C/c1c(O)ccc2ccccc12)C1CCCCC1` are greater than 50 µM, greater than 10 µM and greater than 10 µM.
The matching figures for `COC(=O)[C@H](NC(=O)c1ccccc1/N=C/c1ccccc1O)c1ccccc1`: greater than 50 µM, 4.36 µM and 4.98 µM.
On to `O=C(N[C@H](C(=O)O)c1ccccc1)c1ccccc1/N=N/c1c(O)ccc2ccccc12`, for which the IC50 was determined as 16.8 µM against Neutrophil elastase, 2.02 µM in the experiment on Neutrophil and 2.25 µM in experiment [1].
The matching figures for `O=C(N[C@H](Cc1ccccc1)C(=O)O)c1ccccc1/N=N/c1c(O)ccc2ccccc12`: 20.7 µM, 1.61 µM and 1.54 µM.
The matching figures for `COC(=O)[C@H](Cc1ccccc1)NC(=O)c1ccccc1/N=C/c1c(O)ccc2ccccc12`: greater than 50 µM, 2.95 µM and 2.09 µM.
In the same order, the values of `O=C(N[C@H](C(=O)O)c1ccccc1)c1ccccc1/N=C/c1c(O)ccc2ccccc12` are greater than 50 µM, 2.5 µM and greater than 10 µM.
Consider `COC(=O)[C@@H](NC(=O)c1ccccc1/N=C/c1c(O)ccc2ccccc12)c1ccccc1`, for which the values for the IC50 (at Neutrophil elastase; with Neutrophil; in experiment [1]) were greater than 50 µM, 3.56 µM and 3.84 µM, respectively.
The matching figures for `COC(=O)[C@H](NC(=O)c1ccccc1/N=C/c1c(O)ccc2ccccc12)c1ccccc1`: 38.8 µM, 5.56 µM and 1.76 µM.
The matching figures for `CC(NC(=O)c1ccccc1NCc1c(O)ccc2ccccc12)c1ccccc1` (configuration not stated): 26.2 µM, greater than 10 µM and 6.44 µM.
